According to patent US20250064750A1, “LIPID AND COMPOSITION USED FOR DELIVERY” (JIANGSU HENGRUI PHARMACEUTICALS CO., LTD., priority 2021, published 2025):
Like-named read-outs stand apart in the source and are kept apart here.

Columns and labels:
[1] = Size and polydispersity index of liposomal nanoparticles by dynamic light scattering; assay type: physicochemical; settings: mRNA-encapsulating liposomal nanoparticles; lipid:DSPC:cholesterol:DMG-PEG 50:10:38.5:1.5
Protocol: (§1) Compound 1, compound 2, and comparative compound 1 were each dissolved in an ethanol solution, and the resulting solution was mixed with solutions of DSPC, cholesterol, and DMG-PEG in ethanol in a mole ratio of 50:10:38.5:1.5 to prepare an ethanol lipid solution. mRNA encoding a human growth factor was dissolved in a citrate buffer to prepare an aqueous mRNA solution. Liposomes were prepared by mixing the ethanol lipid solution and the aqueous mRNA solution by microfluidics with a weight ratio of total lipids to mRNA of about 20:1. The ethanol was removed by dialysis against PBS solution to give an mRNA-encapsulating liposomal nanoparticle composition.
The size and polydispersity index (PDI) of the liposomal nanoparticles were determined using a Malvern Zetasizer Nano ZS in a 173° backscatter detection mode through dynamic light scattering.

[2] = Liposome encapsulation efficiency, Quant-iT RiboGreen RNA assay; assay type: physicochemical; settings: mRNA-encapsulating liposomal nanoparticles
Protocol: as §1
The liposome encapsulation efficiency was determined using a Quant-iT RiboGreen RNA assay kit.

[3] = pKa of cations in liposomal nanoparticles, TNS fluorescence analysis; assay type: physicochemical; settings: pH at half-maximal TNS fluorescence
Protocol: as §1
The pKa of cations in the liposomal nanoparticles was determined using a fluorescence analysis based on 6-(p-toluidino)-2-naphthalenesulfonic acid sodium salt (TNS). 150 mM NaCl, 10 mM sodium phosphate, 10 mM sodium citrate, 10 mM sodium borate, and buffers of various pH levels ranging from 3 to 11.5 were prepared. A 300 μM TNS solution was prepared and added to the buffers. The lipid nanoparticles were added to the buffers of different pH levels and thoroughly mixed with them. Then the fluorescence intensity at an excitation wavelength of 325 nm and an emission wavelength of 435 nm was measured at room temperature using a fluorescence microplate reader. A fitting analysis of the fluorescence data was performed, with the pKa being the pH value at which half-maximal fluorescence intensity was produced.

[4] = test system: hepatocyte growth factor protein; assay: In vivo mRNA delivery by intramuscular injection, hepatocyte growth factor protein expression by ELISA; set-up: species or system BALB/c mice; settings: HGF mRNA lipid nanoparticles, 0.05 mg/kg; for Mean protein expression level: thigh muscle injection, muscle tissue after 24 hours
Protocol: After 24 hours, the muscle tissue at the injection site was collected, ground, and lysed. The expression level of hepatocyte growth factor protein (pg/mg), i.e., the hepatocyte growth factor protein amount to which the unit muscle tissue total protein amount corresponds, was then measured using an ELISA kit.
With the liposomal nanoparticles to which comparative compound 1 corresponds as a control, the intramuscular injection in vivo mRNA delivery efficiency of the liposomal nanoparticles to which compounds 1 and 2 correspond was measured.

luciferase protein = assay: Tail vein injection in vivo mRNA delivery efficiency, whole-body luciferase fluorescence intensity (IVIS); set-up: species or system BALB/c mice; settings: 0.5 mg/kg, 6 hours; for Fluorescence intensity level (p/s): whole body
Protocol: After 6 hours, the luciferase substrate was injected intraperitoneally into each mouse. Fluorescence images of the mice were captured using an IVIS small animal optical in vivo imaging system (PerkinElme), and the whole-body fluorescence intensity of the mice was recorded. The level of fluorescence intensity reflects the expression level of luciferase protein, i.e., the in vivo mRNA delivery efficiency of the liposomal nanoparticles. […] In FIG. 2, the fluorescence intensity refers to the whole-body fluorescence intensity of the mice recorded using the IVIS small animal optical in vivo imaging system. The level of fluorescence intensity reflects the expression level of luciferase protein, i.e., the in vivo mRNA delivery efficiency of the lipid nanoparticles.
With the liposomal nanoparticles to which comparative compound 1 corresponds as a control, the mouse tail vein injection in vivo mRNA delivery efficiency of the liposomal nanoparticles to which compound 1, compound 3, and compound 4 correspond was measured.

[5] = Tissue targeting: cationic lipid concentrations in liver and spleen after tail vein injection, LC-MS; assay type: in vivo, BALB/c mice; settings: 0.5 mg/kg; for AUC(0-t): female, BALB/c, mouse, intravenous, HGF mRNA lipid nanoparticles
Protocol: Based on pharmacokinetic parameters, the total cationic lipid concentrations in the tissues 48 hours after administration were calculated to evaluate the distribution of lipid nanoparticles in the liver and spleen.

interleukin 6 (IL-6) = assay: In vivo immunogenicity: serum IL-6 concentration by ELISA after tail vein injection; set-up: species or system BALB/c mice; settings: 0.5 mg/kg, 6 hours
From the text: When exogenous substances enter the bodies of mammals, they induce an innate immune response, thereby promoting the production of cytokines. These exogenous substances can cause inflammatory reactions after entry into the body, which easily give rise to adverse reactions such as fever and edema in the body. The immunogenicity of lipid nanoparticles in the body was therefore evaluated by evaluating the concentration of a cytokine such as interleukin 6 (IL-6) in the blood of mice injected with lipid nanoparticles. Lower cytokine concentrations indicate that the lipid nanoparticles have lower immunogenicity, which means that they are biologically safer.
After 6 hours, blood was collected and serum was isolated. The IL-6 concentration in the serum was measured using a mouse IL-6 ELISA kit.

[6] = female, BALB/c, mouse, in vivo, 0.5 mg/kg
Protocol: (§2) To evaluate the targeting in liposomal nanoparticles' in vivo delivery, liposomal nanoparticles with mRNA for expression of hepatocyte growth factor encapsulated therein were injected into the tail veins of 6-8 week old female BALB/c mice at a dose of 0.5 mg/kg. Plasma, liver, and spleen samples were collected at 1 hour, 2 hours, 4 hours, 6 hours, 24 hours, and 48 hours after injection of the lipid nanoparticles, and the concentrations of cationic lipid molecules in the plasma samples at the corresponding time points were determined by LC-MS mass spectrometry to evaluate the metabolism and in vivo clearance rate of the lipid nanoparticles. For the lipid nanoparticles to which each compound corresponds, at least 3 biological replicates were used, and the mean cationic lipid concentrations in the tissues were calculated.
(§3) Based on pharmacokinetic parameters, the half-lives of the cationic lipids in the tissues were calculated.

in vivo = settings: female, BALB/c, mouse, 0.5 mg/kg
Protocol: as §2, §3

[7] = luciferase mRNA lipid nanoparticles
[8] = luciferase mRNA lipid nanoparticles, tail vein

SMILES | PDI [1] | Size (nm) [1] [nm] | Encapsulation efficiency (%) [2] [%] | pKa [3] | in vivo mRNA delivery via intramuscular injection compared with comparative compound 1 ([4]; 24 hours) | in vivo mRNA delivery via intramuscular injection compared with compound 2 ([4]; 24 hours) | Mean protein expression level [4] [pg/mg] | tail vein injection in vivo mRNA delivery efficiency compared with comparative compound 1 (luciferase protein; [7]) | tail vein injection in vivo mRNA delivery efficiency compared with comparative compound 3 (so in the source) (luciferase protein; [7]) | Fluorescence intensity level (p/s) (luciferase protein; [8]) | protein expression level relative to lipid nanoparticles of comparative compound 1 (luciferase protein; tail vein) [times] | AUC(0-t) ([5]; cationic lipid in liver, read-out: AUC48 h (h*μg/mL) Liver) [µg·h/mL] | AUC(0-t) ([5]; cationic lipid in spleen, read-out: AUC48 h (h*μg/mL) Spleen) [µg·h/mL] | concentration in the liver compared with comparative compound 1 ([5]; liver samples at the various time points (FIG. 3)) | concentration in the spleen compared with comparative compound 1 ([5]; spleen (FIG. 4)) | serum IL-6 concentration compared with comparative compound 1 (interleukin 6 (IL-6)) | time at which completely cleared from plasma [6] [h] | concentration at 1 h (in vivo) [ng/mL] | half-life (in vivo; Half-life (hours) Liver) [h] | half-life (in vivo; Half-life (hours) Spleen) [h]
CCCCCCCCCCCOC(=O)CCCCCN(CCO)CCCCCOCC(=O)OC(CCCCCCCC)CCCCCCCC [Compound 1] | 0.08 | 87.8 | 94.6 | 6.65 | significantly outperformed | significantly outperformed | 217.3 | significantly better | significantly outperformed | 1.05E+09 | 2.1 | 540 | 493 | significantly higher | significantly lower | significantly lower | 4 | 1160 | 34.2 | 31.9
CCCCCCCCCCCOC(=O)CCCCCN(CCO)CCCCCO[C@@H](C)C(=O)OC(CCCCCCCC)CCCCCCCC [Compound 3] | 0.09 | 79.6 | 96.7 | 6.49 |  |  |  |  |  | 4.28E+06 |  |  |  |  |  |  |  |  |  | 
CCCCCCCCCCCOC(=O)CCCCCN(CCO)CCCCCOC(C)(C)C(=O)OC(CCCCCCCC)CCCCCCCC [Compound 4] | 0.07 | 74.8 | 97.3 | 6.3 |  |  |  | significantly outperformed |  | 6.78E+08 |  |  |  |  |  | significantly lower |  |  |  | 
CCCCCCCCCCCOC(=O)CCCCCN(CCO)CCOCCCCC(=O)OC(CCCCCCCC)CCCCCCCC [Compound 2] | 0.07 | 116.5 | 97.3 | 6.38 |  |  | 92.5 |  |  |  |  |  |  |  |  |  |  |  |  | 
